One assay relates to MDA-MB-231 cells. In words: In-vitro cell viability test (CellTiter-Glo, 7 days). Type of assay: cell-based. To be noted: Homo sapiens, 168 h, 7 days incubation. On the procedure: RPMI 1640 medium (Invitrogen-22400089); fetal bovine serum (Invitrogen-10099141); Trypsin, 0.05% (1×) with EDTA 4Na (Invitrogen-25300062); luminescent cell viability assay kit (Promega-G7573); Dulbecco's phosphate buffered saline (HyClone-SH30028.01B); and 384-well plate (Corning-6007680). Envision Multi-label Analyzer.
1. 30 μL of MDA-MB-231 cell suspension, which contained 250 MDA-MB-231 cells, was added into the wells of a 384-microwell plate.
2. 20 μL of a test compound (the test compounds were formulated at a high concentration of 10 μM, the test compounds were subjected to a 5-fold gradient dilution, and each compound was diluted to 10 concentration gradients) was added, and then the cell plate was put back into a carbon dioxide incubator to be incubated for 7 days.
3. The cell plate was kept flat at room temperature for 30 minutes.
4. 20 μL of a Promega CellTiter-Glo reagent was added into each well of the cell plate.
5. After 10 minutes, the Envision Multi-label Analyzer was used for data reading.
In general terms: ATP-based viability assays read luminescence as a measure of living cells.

For assay [1], the system named is MDA-MB-231 triple-negative breast cancer CDX. In words: In-vivo drug efficacy study 1, MDA-MB-231 CDX model. Further details: species or system BALB/c nude mice. The procedure:
(§1) The in-vivo drug efficacy experiments were carried out in BALB/c nude mice implanted subcutaneously with human tumor cell line-derived xenograft (CDX) derived from patients suffering from MDA-MB-231 triple-negative breast cancer.
(§2) BALB/c nude mice, female, 6 to 8 weeks old, weighing about 18 to 22 g, were kept in a special pathogen-free environment and in separated ventilated cages (3 mice per cage). All cages, bedding and water were disinfected before use. All animals had free access to standard certified commercial laboratory diets. A total of 48 mice purchased from Shanghai BK Laboratory Animal Co., LTD were used for the study. Each mouse was inoculated subcutaneously in the right flank with tumor cells (10×10^6 cells in 0.2 mL of a phosphate buffer) for tumor growth. The administration was initiated when the average tumor volume reached about 147 cubic millimeters. The test compounds were orally administered daily at a dose of 30 mg/kg. Tumor volumes were measured with a two-dimensional caliper every 3 days. The volume was measured in cubic millimeters and calculated by the following formula: V=0.5 a×b^2, where a and b were the long and short diameters of a tumor, respectively. Anti-tumor efficacy was determined by dividing the average increase in tumor volume of animals treated with a compound by the average increase in tumor volume of untreated animals.

Assay [2] shares this test system. As to the kind of experiment: In-vivo drug efficacy study 2, MDA-MB-231 CDX model. Details: species or system BALB/c nude mice. On the procedure:
as §1
as §2, with “110” for “147”

In the next assay the target is T1, cIAP1 BIR3 (Homo sapiens, UniProt Q13490).
T1 construct: covering amino acids 258 to 363; GST; His; purchased RBC APT-11-370; host or cells: E. coli
In words: Binding experiment of cIAP1 BIR3 (fluorescence polarization). To be noted: 20 nM cIAP1 BIR3, 5 nM probe ARPFAQ-K(5-FAM)-NH2, 60 min. The procedure: (§3) Buffer system for the test (a buffer for cIAP1 BIR3 or XIAP BIR3): 100 mM potassium phosphate, pH 7.5; 0.1% BSA; 0.005% Triton X-100; and 1% dimethyl sulfoxide.
(§4) Probe: ARPFAQ-K(5-FAM)-NH2.
cIAP1-BIR3-his: RBC Cat #APT-11-370, the BIR3 domain of human cIAP1 (covering amino acids 258 to 363; cIAP1 BIR3), as a GST-fusion protein expressed and purified from E. coli.
(§5) Reaction conditions: 5 nM ARPFAQ-K(5-FAM)-NH2, 20 nM cIAP1 BIR3 and 30 nM XIAP BIR3.
(§6) First, a fresh buffer for cIAP1 BIR3 or XIAP BIR3 was prepared, a cIAP1 BIR3 or XIAP BIR3 solution (2-fold diluted) was added thereto, and then a compound to be tested which had been dissolved in 100% DMSO was added into the buffer solution containing cIAP1 BIR3 or XIAP BIR3 by an acoustic technique. Thereafter, the probe (2-fold diluted) was added, and the resultant was mixed and incubated in the dark at room temperature for 60 minutes. The fluorescence polarization was measured and the mP value was calculated. Finally, the IC50 value was obtained.
For orientation: In fluorescence polarisation assays a small probe gives low polarisation when free and higher when bound to something large.

The target in another assay is T2, XIAP BIR3 (Homo sapiens, UniProt P98170).
T2 construct: covering amino acids 255 to 356; GST; His; purchased RBC APT-11-374; host or cells: E. coli
In words: Binding experiment of XIAP BIR3 (fluorescence polarization). As to conditions: 30 nM XIAP BIR3, 5 nM probe ARPFAQ-K(5-FAM)-NH2, 60 min. The procedure: as §3, §4
XIAP-BIR3-his: RBC Cat #APT-11-374, the BIR3 domain of XIAP (covering amino acids 255 to 356; XIAP BIR3), as a GST-fusion protein expressed and purified from E. coli.
as §5, §6

The term IC50 denotes the point on the concentration scale where inhibition reaches its midpoint.

T2 sequence (P98170 255-356): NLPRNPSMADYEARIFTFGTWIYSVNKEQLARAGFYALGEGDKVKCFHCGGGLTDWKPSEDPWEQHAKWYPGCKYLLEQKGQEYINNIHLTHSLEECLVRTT
T1 sequence (Q13490 258-363): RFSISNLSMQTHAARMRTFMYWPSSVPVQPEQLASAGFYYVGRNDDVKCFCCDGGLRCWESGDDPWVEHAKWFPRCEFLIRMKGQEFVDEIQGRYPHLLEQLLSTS

With `CN[C@@H](C)C(=O)N[C@H](C(=O)N1CCC[C@H]1Cn1cc(C(C)=O)c2cc(Cl)ccc21)C1CCCCC1` [Example 2], the IC50 in the assay with MDA-MB-231 cells is 54.8 nM. Moreover, the “Tumor volume” value in assay [1] (Day 0, 30 mg/kg oral daily) turned out to be 147 mm^3; in assay [1] (Day 6, 30 mg/kg oral daily), 214 mm^3; in assay [1] (Day 13, 30 mg/kg oral daily), 282 mm^3; in assay [1] (Day 20, 30 mg/kg oral daily) it was 810 mm^3; in assay [2] (Day 0, 30 mg/kg oral daily), 110 mm^3; in assay [2] (Day 5, 30 mg/kg oral daily), 111 mm^3. Also, the Tumor volume is 86 mm^3 in assay [2] (Day 12, 30 mg/kg oral daily) and 177 mm^3 in assay [2] (Day 20, 30 mg/kg oral daily).

For the molecule `CN[C@@H](C)C(=O)N[C@H](C(=O)N1CCC[C@H]1Cn1cc(C#N)c2cc(Cl)ccc21)C1CCCCC1` [Example 18], the IC50 at cIAP1 BIR3 is 5.1 nM; on XIAP BIR3, 42.5 nM; in the assay with MDA-MB-231 cells, 22.5 nM.

Turning to `CN[C@@H](C)C(=O)N[C@H](C(=O)N1CCC[C@H]1Cn1cc(N2CCOC2=O)c2cc(Cl)ccc21)C1CCCCC1` [Example 30], the IC50 at cIAP1 BIR3 was 4.4 nM; at XIAP BIR3, 21.6 nM; with MDA-MB-231 cells it was 47.6 nM.

Consider `CN[C@@H](C)C(=O)N[C@H](C(=O)N1CCC[C@H]1Cn1cc(-c2ccnn2C)c2cc(F)ccc21)C1CCCCC1` [Example 26], for which the IC50 came out at 1.1 nM on cIAP1 BIR3, 60 nM at XIAP BIR3 and 181 nM in the assay with MDA-MB-231 cells.

Consider `CN[C@@H](C)C(=O)N[C@H](C(=O)N1CCC[C@H]1Cn1cc(-c2ccnn2C)c2cc(Cl)ccc21)C1CCCCC1` [Example 27], for which the IC50 on cIAP1 BIR3 was determined as 4.4 nM; at XIAP BIR3 it was 46.4 nM; in the assay with MDA-MB-231 cells, 282 nM.

As to `CN[C@@H](C)C(=O)N[C@H](C(=O)N1CCC[C@H]1Cn1cc(C(C)=O)c2cccc(Cl)c21)C1CCCCC1` [Example 6], the IC50 on cIAP1 BIR3 was determined as 58.3 nM; at XIAP BIR3 it was 9.3 nM; in the assay with MDA-MB-231 cells, 497 nM.

As for `CN[C@@H](C)C(=O)N[C@H](C(=O)N1CCC[C@H]1Cn1nc(C#N)c2cc(Cl)ccc21)C1CCCCC1` [Example 19], the IC50 at cIAP1 BIR3 turned out to be 4.6 nM; on XIAP BIR3, 129 nM; in the assay on MDA-MB-231 cells it was 43.1 nM.

On to `CN[C@@H](C)C(=O)N[C@H](C(=O)N1CCC[C@H]1Cn1cc(C(C)=O)c2cc(Br)ccc21)C1CCCCC1` [Example 7], for which the concentration for half-maximal inhibition (IC50) on cIAP1 BIR3 came to 4.9 nM; on XIAP BIR3 it was 45 nM; in the assay on MDA-MB-231 cells, 16.6 nM.

On to `CN[C@@H](C)C(=O)N[C@H](C(=O)N1CCC[C@H]1Cn1cc(C(C)=O)c2cc(C(F)(F)F)ccc21)C1CCCCC1` [Example 3], for which the values for the IC50 at cIAP1 BIR3, on XIAP BIR3 and in the assay on MDA-MB-231 cells were 1 nM, 18.1 nM and 16 nM, respectively.

Regarding `CN[C@@H](C)C(=O)N[C@H](C(=O)N1CCC[C@H]1Cn1cc(S(C)(=O)=O)c2cc(Cl)ccc21)C1CCCCC1` [Example 21], the IC50 at cIAP1 BIR3 was 4.2 nM; on XIAP BIR3, 37.4 nM; in the assay on MDA-MB-231 cells, 16.4 nM.

As to `CN[C@@H](C)C(=O)N[C@H](C(=O)N1CCC[C@H]1Cn1cc(C(C)=O)c2cc(Cl)c(F)cc21)C1CCCCC1` [Example 9], the IC50 on cIAP1 BIR3 was 5.7 nM; on XIAP BIR3 it was 20 nM; in the assay with MDA-MB-231 cells, 26 nM.

Regarding `CN[C@@H](C)C(=O)N[C@H](C(=O)N1CCC[C@H]1Cn1cc(S(C)(=O)=O)c2cc(F)ccc21)C1CCCCC1` [Example 20], the IC50 on cIAP1 BIR3 worked out at 1.1 nM; on XIAP BIR3, 53.9 nM; with MDA-MB-231 cells, 75 nM.

Consider `CN[C@@H](C)C(=O)N[C@H](C(=O)N1CCC[C@H]1Cn1nc(C(C)=O)c2cc(F)ccc21)C1CCCCC1` [Example 15], for which the values for the IC50 on cIAP1 BIR3, at XIAP BIR3 and in the assay with MDA-MB-231 cells were 4 nM, 258 nM and 93 nM, respectively.

With `CN[C@@H](C)C(=O)N[C@H](C(=O)N1CCC[C@H]1Cn1cc(C(C)=O)c2cc(F)ccc21)C1CCCCC1` [Example 1], the IC50 is 3.7 nM at cIAP1 BIR3, 74.7 nM on XIAP BIR3 and 70 nM in the assay with MDA-MB-231 cells.

These data come from patent US11358950B2, “SMAC mimetics used as IAP inhibitors and use thereof” (CHIA TAI TIANQING PHARMACEUTICAL GROUP CO., LTD., priority 2017, dated 2022).
